Publication PMC12752627, “Discovery of a Potent and Selective TEAD Degrader with Durable Degradation Activity” (Advanced Science, 2025)

Experiments:
[1] = target: T1, CRBN (Homo sapiens, UniProt Q96SW2); test: Intracellular CRBN binding in NanoLuc-CRBN-overexpressing HEK293T cells; format: cell-based; settings: read-out: Cellular CRBN Binding IC50 (nM ± SD)
T1 construct: expressed in transfected cells; host or cells: HEK293T
Experimental: NanoLuc‐CRBN‐overexpressing HEK293T were seeded in 96‐well plates at a density of 2000 per well. The following day, compounds was added to the plate starting from 10 µM for a 3‐fold gradient dilution and incubated for 2 h. […] Finally, the signal was measured using an Envision plate reader (Revvity) and the data were analyzed using the GraphPad Prism 9.5 software.

[2] = target: T2, TEAD4 (Homo sapiens, UniProt Q15561); test: HiBiT degradation assay, HEK293T HiBiT-TEAD4; format: cell-based; settings: 6 h
T2 construct: endogenous in cells; host or cells: HEK293T HiBiT knock-in
Experimental: (§1) HiBiT cells were inoculated into 96‐well flat‐bottomed tissue culture plates at a density of 50 000 cells per well, followed by adding degraders into the wells using the I‐DOT dispenser. After 6 h of incubation, the cells were lysed and assayed for degradation using the Nano‐Glo HiBiT Lysis Assay System (Promega, #N3030). Luminescence signals were read using an Envision plate reader (Revvity) and the data were analyzed using GraphPad Prism 9.5 software.
(§2) The ribonucleoprotein (RNP) complex was prepared by mixing 2 µg of NLS‐Cas9‐EGFP nuclease (Novoprotein, #E379‐01A), 50 pmol of sgRNA, 10 µL of electrotransfer solution, and 50 pmol of designed donor DNA, then incubated for 10 min at room temperature. One million HEK293T cells were resuspended in 10 µL of electrotransfection solution and mixed with 10 µL of the RNP complex. Electroporation was performed using a Celetrix SP100 electroporator at 480 V. After electroporation, the cells were transferred to antibiotic‐free DMEM complete medium for overnight culture. The following day, EGFP‐positive cells were sorted using a Sony MA 900 cell sorter, plated in a 96‐well cell culture plate (Servicebio, #CCP‐96H), and cultured for 4 weeks. After this period, positive clones were screened using the Nano‐Glo HiBiT Lytic Detection system (Promega, #N3030).

[3] = tested on: TEAD1, TEAD3, and TEAD4; test: Immunoblot dose-response in TEAD1-mNeonGreen fusion NCI-H1299 cells; format: cell-based; settings: 6 h
Experimental: (§3) Immunoblotting was carried out as previously described.^[ [29] ^] Cells were seeded in 6‐well plates (Yeasen, #84011ES50) at a density of 1 million cells per well. The following day, cells were treated with compounds at the required concentrations, with the DMSO concentration kept below 0.4‰ to prevent toxic effects on the cells. The collected cell pellets were washed three times with PBS (Meilunbio, #MA0015) and resuspended in 120 µL of RIPA lysis buffer (Meilunbio, #MA0151) containing 1% protease inhibitor (Meilunbio, #MB2678‐2). The cells were then sonicated on ice and centrifuged at 12 000 rpm for 15 min at 4 °C to remove cellular debris. Protein concentrations were determined using the BCA Protein Quantification Kit (Meilunbio, #MA0082‐1). The protein samples were normalized, boiled at 99 °C for 10 min, and then subjected to electrophoresis on a 10% SDS‐PAGE gel. The separated protein bands were transferred to nitrocellulose membranes, blocked with TBST containing 5% BSA, and incubated with the indicated primary antibodies. Finally, the blots were imaged using an Amersham Typhoon NIR imager.

[4] = tested on: MSTO-211H xenograft; test: MSTO-211H xenograft efficacy study; format: in vivo, BALB/c nude mice; settings: for Tumor growth inhibition (TGI) rate: MSTO-211H xenograft
Experimental: Animal experiments were conducted by Medsyin (Shanghai) Co., Ltd. The experimental protocol was approved by the IACUC of the company (No.: PZWH‐2025031003) and strictly adhered to the guidelines of the AAALAC. The specific procedures are as follows: 5 × 10^6 MSTO‐211H cells or ES2 cells were suspended in 100 µL of a mixture of PBS and Matrigel and inoculated subcutaneously into the right axilla of 6‐week‐old BALB/c nude mice. Drug administration was initiated on day 7 after cell inoculation (when the average tumor volume was ≈150 mm^3). The experiment was divided into four groups with 6 mice in each group. The specific grouping and administration methods are as follows: control group, KY‐001 group (10 mg kg^−1, p.o.), KG‐FP‐003 (10 mg kg^−1 or 30 mg kg^−1, i.p.). The administration routes included intraperitoneal injection and intragastric administration, once a day for 21 consecutive days. During the experiment, the body weight and tumor volume of the mice were measured twice a week. At the end of the experiment, the mice were sacrificed and tumor tissues were collected.

[5] = target: T3, TEAD1 (Homo sapiens, UniProt P28347); test: HiBiT degradation assay, HEK293T HiBiT-TEAD1; format: cell-based; design: endogenous in cells; host or cells: HEK293T wild-type and CRBN-knockout; settings: 6 h
Experimental: as §1, §2
Target sequence in this assay (P28347 whole entry): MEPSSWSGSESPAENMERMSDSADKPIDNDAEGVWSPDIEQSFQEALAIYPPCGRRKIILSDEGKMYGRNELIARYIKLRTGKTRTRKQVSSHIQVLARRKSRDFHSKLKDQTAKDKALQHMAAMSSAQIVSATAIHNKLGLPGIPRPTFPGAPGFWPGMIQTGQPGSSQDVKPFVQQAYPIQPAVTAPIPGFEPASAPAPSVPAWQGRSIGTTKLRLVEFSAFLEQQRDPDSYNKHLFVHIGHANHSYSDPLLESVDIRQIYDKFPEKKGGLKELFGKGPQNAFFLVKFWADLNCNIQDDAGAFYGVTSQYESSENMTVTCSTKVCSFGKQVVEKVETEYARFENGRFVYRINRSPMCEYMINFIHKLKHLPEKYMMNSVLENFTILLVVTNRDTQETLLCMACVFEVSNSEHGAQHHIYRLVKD

[6] = target: T3, TEAD1; test: Immunoblot of TEAD1 degradation in TEAD1-mNeonGreen fusion NCI-H1299 cells; format: cell-based; design: endogenous in cells; host or cells: NCI-H1299 (TEAD1-mNeonGreen knock-in); settings: 100 nM, TEAD1-mNeonGreen fusion NCI-H1299 cells
Experimental: as §3
Target sequence in this assay (P28347 whole entry): as above
Target sequence in this assay (Q96SW2 whole entry, further chain): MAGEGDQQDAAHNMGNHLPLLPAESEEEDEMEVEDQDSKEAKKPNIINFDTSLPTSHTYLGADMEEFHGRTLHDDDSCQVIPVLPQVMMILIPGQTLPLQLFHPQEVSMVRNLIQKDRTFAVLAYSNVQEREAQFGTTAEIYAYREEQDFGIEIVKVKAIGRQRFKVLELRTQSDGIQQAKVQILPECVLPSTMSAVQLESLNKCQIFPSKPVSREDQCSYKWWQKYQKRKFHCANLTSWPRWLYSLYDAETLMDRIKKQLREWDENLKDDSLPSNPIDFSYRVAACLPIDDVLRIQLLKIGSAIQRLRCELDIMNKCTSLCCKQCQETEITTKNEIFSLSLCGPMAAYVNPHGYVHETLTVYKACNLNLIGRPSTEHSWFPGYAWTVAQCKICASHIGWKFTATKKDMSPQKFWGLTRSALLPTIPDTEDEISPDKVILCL
Target sequence in this assay (Q16531 2-1140 partner limits assumed): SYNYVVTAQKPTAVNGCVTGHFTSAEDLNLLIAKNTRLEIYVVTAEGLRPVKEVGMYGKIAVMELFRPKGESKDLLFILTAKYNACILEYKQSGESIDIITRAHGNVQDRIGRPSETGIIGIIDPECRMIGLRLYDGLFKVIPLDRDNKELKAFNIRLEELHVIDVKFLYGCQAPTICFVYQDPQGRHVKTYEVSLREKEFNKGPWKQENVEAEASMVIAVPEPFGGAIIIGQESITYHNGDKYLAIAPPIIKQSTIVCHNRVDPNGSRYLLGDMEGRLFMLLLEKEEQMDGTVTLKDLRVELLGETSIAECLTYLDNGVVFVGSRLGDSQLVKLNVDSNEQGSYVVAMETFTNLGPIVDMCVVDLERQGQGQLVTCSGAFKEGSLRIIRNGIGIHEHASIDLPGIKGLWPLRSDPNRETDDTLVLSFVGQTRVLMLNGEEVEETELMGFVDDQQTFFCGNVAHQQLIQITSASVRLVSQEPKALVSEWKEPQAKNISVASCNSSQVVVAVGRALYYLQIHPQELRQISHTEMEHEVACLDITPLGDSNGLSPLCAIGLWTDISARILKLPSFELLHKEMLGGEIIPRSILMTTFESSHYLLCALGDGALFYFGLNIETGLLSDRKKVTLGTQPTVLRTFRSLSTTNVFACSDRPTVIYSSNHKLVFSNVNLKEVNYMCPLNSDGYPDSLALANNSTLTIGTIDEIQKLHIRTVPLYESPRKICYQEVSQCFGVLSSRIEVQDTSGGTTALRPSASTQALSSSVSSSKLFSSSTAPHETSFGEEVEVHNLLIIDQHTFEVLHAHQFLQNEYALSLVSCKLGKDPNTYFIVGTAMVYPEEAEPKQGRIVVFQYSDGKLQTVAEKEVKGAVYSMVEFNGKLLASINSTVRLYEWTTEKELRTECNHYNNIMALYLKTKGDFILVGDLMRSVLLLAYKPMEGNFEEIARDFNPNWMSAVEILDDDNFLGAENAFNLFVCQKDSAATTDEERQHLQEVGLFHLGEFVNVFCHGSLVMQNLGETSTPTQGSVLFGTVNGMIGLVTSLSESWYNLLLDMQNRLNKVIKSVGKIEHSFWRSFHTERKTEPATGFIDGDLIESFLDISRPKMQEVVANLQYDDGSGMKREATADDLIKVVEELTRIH

T2 sequence (Q15561 whole entry): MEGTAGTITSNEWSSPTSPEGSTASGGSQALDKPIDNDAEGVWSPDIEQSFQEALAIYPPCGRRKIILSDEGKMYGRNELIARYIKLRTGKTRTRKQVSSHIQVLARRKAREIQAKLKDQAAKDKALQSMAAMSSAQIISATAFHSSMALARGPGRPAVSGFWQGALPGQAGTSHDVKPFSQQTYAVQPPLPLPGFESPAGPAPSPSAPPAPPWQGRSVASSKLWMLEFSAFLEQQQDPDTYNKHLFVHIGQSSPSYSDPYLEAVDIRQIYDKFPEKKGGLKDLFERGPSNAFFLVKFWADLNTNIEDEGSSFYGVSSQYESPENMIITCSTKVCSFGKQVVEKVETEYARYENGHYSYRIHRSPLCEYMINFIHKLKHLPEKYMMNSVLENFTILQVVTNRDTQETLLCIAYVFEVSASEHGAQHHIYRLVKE
T1 sequence (Q96SW2 whole entry): as the sequence (Q96SW2 whole entry, further chain) above

SMILES: CNC(=O)c1cc2c(c(F)c1-c1c(Cl)c(F)cc3c1C[C@@](CN[C@H]1CC[C@H](C(=O)N4CCC(CC5CCN(C(=O)COc6ccc(N7CCC(=O)NC7=O)c(C)c6)CC5)CC4)CC1)(c1ccccc1)O3)[C@@H](O)[C@@H](C)C2 [KG-FP-003]
- IC50 [1]: 962 ± 86 nM
- DC50 [2]: 7 ± 5 nM
- TEAD4 Dmax [2]: ≈ 90%
- Dmax ([2]; HEK-293T): 88 ± 6%
- DC50 against TEAD1, TEAD3, and TEAD4 by immunoblot [3]: nanomolar range
- Tumor growth inhibition (TGI) rate ([4]; 10 mg/kg i.p. q.d. 21 days): 118%
- Tumor growth inhibition (TGI) rate ([4]; 30 mg/kg i.p. q.d. 21 days): 129%
- Body weight during treatment ([4]; 10 or 30 mg/kg i.p., 21 days, MSTO-211H xenograft mice): stable body weights
- DC50 [5]: 6 ± 4 nM
- TEAD1 Dmax [5]: ≈ 90%
- Dmax ([5]; HEK-293T): 93 ± 1%
- Duration of sustained TEAD1 degradation [6]: up to 12 days
